Measurements as given in patent EP1764134B1, “Purine derivatives linked to arylpiperazines” (Spectrum Pharmaceuticals, Inc., priority 2001, dated 2003).

Legend:
mice = experiment: Conditioned avoidance testing (CAR, active avoidance); assay type: in vivo; conditions: S.C. 20 minutes before the test session
Procedure: Training: Consists of 20 trials with variable inter-trial intervals (Trained to 80% Avoidance Criteria). After a one-minute acclimation period, the house light and an acoustic 90dB tone (conditioned stimuli) are presented. A response (crossing to dark compartment) within 5 seconds ends the trial and trial is recorded as avoidance response (CAR). […] To avoid shock, animals learn to move from the lighted side of the chamber to the dark side when the cue is presented (avoidance) or moved when the shock is administered (escape).Testing: Vehicle or test compounds are administered S.C. 20 minutes before the test session. (Checking for disruption of cognition and attention) Table 3. Conditioned Avoidance Responding

male C-57 mice = experiment: Pre-pulse inhibition testing: reversal of PCP disruption of pre-pulse inhibition of acoustic startle; assay type: in vivo; conditions: route not given (method: PO or SC); 20 minutes prior to PCP 5mg/kg IP

SMILES	PERMEABILITY (Caco-2 cells)	Conditioned Avoidance Responding (overall effect / effect on escape or avoidance, in words) (mice)	PCP Disruption of Pre-pulse Inhibition (result in words) (male C-57 mice)	Conditioned Avoidance Responding: effect on latency (in words) (mice)	Conditioned Avoidance Responding: effect on avoidance (in words) (mice)
O=C1CCCc2c1ccn2CCCN1CCN(c2cccc(C(F)(F)F)c2)CC1 [NEO-356, 1-{3-[4-(3-Trifluoromethylphenyl)piperazin-1-yl]propyl}-1,5,6,7-tetrahydroindo1-4-one]	High	No effect	No reversal		
O=C1CCCc2c1ccn2CCN1CCN(c2cccc(C(F)(F)F)c2)CC1 [NEO-359, 1-{2-[4-(3-Trifluoromethylphenyl)piperazin-1-yl]ethyl}-1,5,6,7-tetrahydroindol-4-one]	High	No effect on escape or avoidance	No reversal	Significant decrease in latency	
O=C1CCCc2c1ccn2CCCN1CCN(c2cccc(Cl)c2)CC1 [NEO-363, 1-{3-[4-(3-Chlorophenyl)piperazine-1-yl]propyl}-1,5,6,7-tetrahydroindol-4-one]	High	No effect			
O=C1CCCc2c1ccn2CCCN1CCN(c2ncccn2)CC1 [NEO-381, 1-{3-[4-(2-Pyrimidyl)piperazine-1-yl]propyl}-1,5,6,7-tetrahydroindol-4-one]	High	No effect	No reversal		
O=C1CCCc2c1ccn2CCCCN1CCN(c2cccc(C(F)(F)F)c2)CC1 [NEO-392, 1-{4-[4-(3-Trifluoromethylphenyl)piperazin-1-yl]butyl}-1,5,6,7-tetrahydroindol-4-one]	High			Significant increase in latency	Significant reduction in avoidance
Cc1nc2n(c(=O)c1CCN1CCC(c3noc4cc(F)ccc34)CC1)CCCC2 [Risperidone, risperidone, reference compound]				Significant increase in latency	Significant reduction in avoidance

Further lines, with some results ahead:

PERMEABILITY (Caco-2 cells)	SMILES	Conditioned Avoidance Responding (overall effect / effect on escape or avoidance, in words) (mice)	PCP Disruption of Pre-pulse Inhibition (result in words) (male C-57 mice)	Conditioned Avoidance Responding: effect on latency (in words) (mice)	Conditioned Avoidance Responding: effect on avoidance (in words) (mice)
High	COc1ccccc1N1CCN(CCCn2ccc3c2CCCC3=O)CC1 [NEO-370, 1-{3-[4-(2-Methoxyphenyl)piperazine-1-yl]propyl}-1,5,6,7-tetrahydroindol-4-one]			Significant increase in latency	Significant reduction in avoidance
High	O=C1CCCc2c1ccn2CCN1CCN(c2cccc(Cl)c2)CC1 [NEO-376, 1-{2-[4-(3-Chloro-phenyl)-piperazin-1-yl]-ethyl}-1,5,6,7-tetrahydro-indol-4-one]	No effect on escape or avoidance		significant increase in latency	
High	COc1ccccc1N1CCN(CCn2ccc3c2CCCC3=O)CC1 [NEO-377, 1-{2-[4-(2-Methoxyphenyl)-piperazin-1-yl]-ethyl}-1,5,6,7-tetrahydro-indol-4-one]			Significant increase in latency	Significant reduction in avoidance
High	CC(C)NCC(O)COc1cccc2ccccc12 (stereo not drawn) [Propranolol, reference compound]				
